Results on nine compounds are retold here after patent US5985885A, “Quinazoline-4-amino-2-(piperidine-1-yl-4-substituted) derivatives having antihypertensive activity, a method for their preparation and their pharmaceutical use” (priority 1996, dated 1999).

Structures are written as SMILES. Where two headings read alike, the source gives them in different places. Some results are limits rather than exact numbers.

Series [1] deals with T1, 5-HT2 receptors (isolated rabbit aorta) (Oryctolagus cuniculus, UniProt G1SYA7).
T1 construct: Four rings formed from rabbit aorta were joined together to form a chain; from tissue; host or cells: isolated rabbit aorta rings
T1 sequence (G1SYA7 1-469): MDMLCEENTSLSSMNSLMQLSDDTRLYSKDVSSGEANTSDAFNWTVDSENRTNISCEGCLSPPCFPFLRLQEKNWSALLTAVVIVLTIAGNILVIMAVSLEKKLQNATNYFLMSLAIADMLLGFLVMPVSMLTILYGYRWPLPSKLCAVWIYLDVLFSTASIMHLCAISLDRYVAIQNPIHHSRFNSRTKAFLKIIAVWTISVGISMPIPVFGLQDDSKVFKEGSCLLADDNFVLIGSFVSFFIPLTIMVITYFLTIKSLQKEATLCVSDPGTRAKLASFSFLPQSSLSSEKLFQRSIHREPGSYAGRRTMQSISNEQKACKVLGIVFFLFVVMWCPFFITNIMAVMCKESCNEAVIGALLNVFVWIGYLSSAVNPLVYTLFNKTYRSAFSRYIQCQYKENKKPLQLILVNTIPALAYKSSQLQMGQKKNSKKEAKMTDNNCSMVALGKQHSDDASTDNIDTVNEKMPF
Nature of the series: Antagonism of serotonin-induced contraction of isolated rabbit aorta. The procedure: The antagonist activity of some of the compounds of the invention on the contractile activity of seratonin on isolated rabbit aorta, effected principally by way of the 5-HT2 receptors, is reported here by way of example. The method of Feniuk et al [Br. J. Pharmacol. (1985), 86, 697-704] was used, with slight modifications. Four rings formed from rabbit aorta were joined together to form a chain; the preparation was placed in an isolated organ bath in the presence of Krebs at 37° C. and attached to an isometric transducer, a tension of 2 g being applied and oxygenation was carried out continuously with O2 --CO2 (95-5 v/v). A seratonin concentration(0.3 μM) was used that was capable of causing sub-maximal contraction of the preparation. […] The results obtained in this way are given in Table 4 below which, for several of the compounds of the invention gives IC50 values calculated by the regression method on a set of at least 2 experiments at 5 different concentrations for each of the compounds examined, these being compared with values obtained for several reference compounds.

Series [2] relates to spontaneously hypertensive (SHR) rat. The series can be described thus: Anti-hypertensive activity in the spontaneously hypertensive (SHR) rat (oral). It counts as in vivo. Conditions: for ED20: Rattus norvegicus, 2 h, 0-120 min, NC: not calculable, read-out: Systolic pressure ED20 (0-120 min). The text has this:
Animals having a mean basal systolic pressure of not less than 180 mmHg were used.

Series [3] deals with anaesthetised normotensive rat. Nature of the series: Hypotensive activity in the anaesthetised normotensive rat (IV). It counts as in vivo. Conditions: for ED30: Rattus norvegicus, read-out: Reduction in mean arterial pressure ED30. The procedure: In order to evaluate the in vivo activity, some of the compounds of the invention were administered (IV) in bolus form to the normotensive rat anaesthetised with urethane plus ketamine. The compounds were administered in at least three doses in experiments performed in duplicate so as to enable the calculation of ED30 values, that is, the dose in mg/kg that reduces the mean basal arterial pressure by 30%. The compounds of the invention, and several reference standards, were dissolved in dilute hydrochloric acid at a physiologically acceptable pH, and physiological solution was administered in a volume of 3 ml/kg. Evaluations were made at two time periods, that is, the intervals 0-30 min and 30-60 min after administration.

For series [4], the target named is T2, alpha1B adrenergic receptor (rat liver) (Rattus norvegicus, UniProt P15823).
T2 sequence (P15823 1-515): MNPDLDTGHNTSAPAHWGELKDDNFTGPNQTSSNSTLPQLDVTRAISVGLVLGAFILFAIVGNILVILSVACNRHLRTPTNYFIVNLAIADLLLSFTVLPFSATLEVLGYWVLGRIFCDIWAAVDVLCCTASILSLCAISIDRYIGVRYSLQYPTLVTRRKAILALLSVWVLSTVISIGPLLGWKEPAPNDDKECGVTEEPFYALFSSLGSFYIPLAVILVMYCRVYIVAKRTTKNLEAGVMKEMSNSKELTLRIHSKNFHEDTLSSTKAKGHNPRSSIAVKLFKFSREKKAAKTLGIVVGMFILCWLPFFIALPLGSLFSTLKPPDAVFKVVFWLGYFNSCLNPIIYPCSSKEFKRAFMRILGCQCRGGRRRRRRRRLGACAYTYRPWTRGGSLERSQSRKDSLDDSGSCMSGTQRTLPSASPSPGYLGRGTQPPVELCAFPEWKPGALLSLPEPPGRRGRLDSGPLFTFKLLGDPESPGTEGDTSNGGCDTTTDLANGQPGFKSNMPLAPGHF
Nature of the series: [3H]-prazosin binding in rat liver.

The target in series [5] is alpha1A + alpha1C adrenergic receptor (human prostate). The series can be described thus: [3H]-prazosin binding in human prostate. Conditions: alpha1A + alpha1C subtype, pH 7.5, 30 min, 25° C., read-out: Inhibition of the binding of [3H]-prazosin IC50.
The target of series [6] is T3, alpha1A adrenergic receptor (rat GSM) (Rattus norvegicus, UniProt P43140).
T3 sequence (P43140 1-466): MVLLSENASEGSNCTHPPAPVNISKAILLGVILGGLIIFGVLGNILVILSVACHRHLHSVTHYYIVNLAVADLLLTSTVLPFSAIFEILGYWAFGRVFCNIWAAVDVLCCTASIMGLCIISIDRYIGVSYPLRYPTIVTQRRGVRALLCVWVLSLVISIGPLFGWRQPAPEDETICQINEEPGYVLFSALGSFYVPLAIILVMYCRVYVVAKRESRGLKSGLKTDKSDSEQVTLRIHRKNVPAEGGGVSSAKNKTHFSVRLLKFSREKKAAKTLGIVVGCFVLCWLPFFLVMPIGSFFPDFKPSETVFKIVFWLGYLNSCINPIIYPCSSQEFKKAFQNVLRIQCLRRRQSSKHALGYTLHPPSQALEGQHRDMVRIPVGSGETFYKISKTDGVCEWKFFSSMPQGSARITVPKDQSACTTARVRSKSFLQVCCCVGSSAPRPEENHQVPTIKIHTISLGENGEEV
The series can be described thus: [3H]-prazosin binding in rat submaxillary glands (GSM). Conditions: alpha1A subtype, pH 7.4, 45 min, 25° C., read-out: Inhibition of the binding of [3H]-prazosin IC50.

[7] abbreviates: isolated rabbit aorta, 37° C., compound 10 min before agonist, limits (p < 0.05).
Where [8] appears, read: 0.5 h, IV bolus, interval 0-30 min.
Setting [9] is: 1 h, IV bolus, interval 30-60 min.
The mark [10] stands for this setting: read-out: Inhibitory effect (IC50) on the contraction caused by 0.3 μM serotonin, isolated rabbit aorta, 37° C., compound 10 min before agonist, limits (p < 0.05).
Setting [11] is: read-out: Inhibition of the binding of [3H]-prazosin IC50, rat liver, alpha1B subtype.

A word on the IC50: it is the point on the concentration scale where inhibition reaches its midpoint. As for `COc1cc2nc(N3CCN(C(=O)c4ccco4)CC3)nc(N)c2cc1OC` [Prazosin, reference compound], the IC50 in series [1] (setting [7]) is greater than 130 µM. The “5-HT2-antagonist activity (in words)” value in series [1] (rabbit aorta) is “inactive until higher doses (50 μg/ml)”. For the same compound, in series [2] (3 mg/kg), the “Cardiac frequency, max effect at 3 mg/kg” value is on record as “+9.7 % vs basal” and the “Systolic pressure, max effect at 3 mg/kg” value is on record as -20.0 % vs basal. Also, the “increase in cardiac frequency over the basal frequency” value in series [2] (3 mg/kg, significant) is listed as “approximately 10%”. In series [2], the ED20 is 2.8 mg/kg. Also, in series [3] (setting [8]), the ED30 is 0.02 mg/kg. The ED30 in series [3] (setting [9]) was 0.05 mg/kg.
For the compound `COc1cc2nc(N3CCC(c4ccc(C)o4)CC3)nc(N)c2cc1OC` [Compound 5], the IC50 is 8.41 µM in series [1] (setting [7]); 7.6 µM in series [1] (rabbit aorta, 0.3 μM serotonin, conversion of 3.1 μg/ml, read-out: IC50, 5-HT2 antagonist activity); 0.0021 µM in series [4]; 0.0017 µM in series [5]; 0.0035 µM in series [6]. In series [1] (rabbit aorta, versus ketanserine IC50 0.09 μg/ml), the “times less than ketanserine (IC50)” value is given as “approximately 30 times”. For the same compound, the “anti-hypertensive action (in words)” value in series [2] is given as “about as powerful as prazosin”. The “Cardiac frequency, max effect at 3 mg/kg” value in series [2] (3 mg/kg) was -0.2 % vs basal. Further, in series [2] (3 mg/kg), the “Systolic pressure, max effect at 3 mg/kg” value is on record as -22.1 % vs basal. Besides, the ED20 in series [2] was 2 mg/kg. For the same compound, the ED30 in series [3] (setting [8]) and in series [3] (setting [9]) was 0.03 mg/kg throughout.
For the compound `COc1ccc(CCN(C)CCCC(C#N)(c2ccc(OC)c(OC)c2)C(C)C)cc1OC` (stereo not drawn) [Verapamil, reference compound], in series [2] (3 mg/kg), the “Cardiac frequency, max effect at 3 mg/kg” value was “+2.8 % vs basal”; the “Systolic pressure, max effect at 3 mg/kg” value is -9.0 % vs basal; the “reduction of arterial pressure” value is reported as no more than 9%. Also, the “hypotensive activity compared with prazosin/compounds (in words)” value in series [3] (IV bolus) is “less active”. The ED30 in series [3] (iv, 0.5 h) amounted to 0.63 mg/kg. For the same compound, in series [3] (iv, 1 h), the ED30 worked out at 1.06 mg/kg.
Take `COc1cc2nc(N3CCC(c4ccccc4)CC3)nc(N)c2cc1OC` [Compound 1]: the IC50 is 16.5 µM in series [1] (setting [7]), 0.013 µM in series [4], 0.002 µM in series [5] and 0.0061 µM in series [6]. Besides, the “Cardiac frequency, max effect at 3 mg/kg” value in series [2] (3 mg/kg) was -0.8 % vs basal. Moreover, in series [2] (3 mg/kg), the “Systolic pressure, max effect at 3 mg/kg” value is -7.5 % vs basal. Besides, the ED30 in series [3] (setting [8]) worked out at 0.19 mg/kg; in series [3] (setting [9]), 0.31 mg/kg.
As to `COc1cc2nc(N3CCC(c4ccccc4OC)CC3)nc(N)c2cc1OC` [Compound 2], the IC50 in series [1] (setting [7]) is 37.3 µM; in series [4] it was 0.0077 µM; in series [5], 0.0078 µM; in series [6], 0.0188 µM. Further, the “Cardiac frequency, max effect at 3 mg/kg” value in series [2] (3 mg/kg) was “+2.1 % vs basal”. Besides, the “Systolic pressure, max effect at 3 mg/kg” value in series [2] (3 mg/kg) is reported as -6.4 % vs basal. Moreover, the ED30 turned out to be 0.5 mg/kg in series [3] (setting [8]) and 0.55 mg/kg in series [3] (setting [9]).
Take `COc1cc2nc(N3CCC(c4cccs4)CC3)nc(N)c2cc1OC` [Compound 6]: the IC50 in series [1] (setting [7]) is 88.3 µM; in series [4], 0.006 µM; in series [5], 0.0045 µM; in series [6] it was 0.0041 µM. Further, the “Cardiac frequency, max effect at 3 mg/kg” value in series [2] (3 mg/kg) is reported as “+2.7 % vs basal”. Further, the “Systolic pressure, max effect at 3 mg/kg” value in series [2] (3 mg/kg) is recorded as -8.4 % vs basal. For the same compound, the ED30 in series [3] (setting [8]) was determined as 0.06 mg/kg; in series [3] (setting [9]), 0.08 mg/kg.
`COc1cc2nc(N3CCC(c4cc5ccccc5o4)CC3)nc(N)c2cc1OC` [Compound 8]: the IC50 in series [1] (setting [7]) is 16.6 µM; in series [4], 0.0052 µM; in series [5], 0.02 µM; in series [6] it was 0.0184 µM. Also, the “anti-hypertensive action (in words)” value in series [2] is “about as powerful as prazosin”. Besides, the “Cardiac frequency, max effect at 3 mg/kg” value in series [2] (3 mg/kg) is -5.2 % vs basal. The “Systolic pressure, max effect at 3 mg/kg” value in series [2] (3 mg/kg) is -20.2 % vs basal. For the same compound, the ED20 in series [2] is 2.6 mg/kg. Besides, the ED30 in series [3] (setting [8]) was determined as 0.07 mg/kg; in series [3] (setting [9]), 0.09 mg/kg.
On to `COc1cc2nc(N3CCC(c4ccco4)CC3)nc(N)c2cc1OC` [Compound 4], for which the IC50 is 32.7 µM in series [1] (setting [10]), 0.0017 µM in series [4] (setting [11]), 0.0038 µM in series [5] and 0.0031 µM in series [6]. In addition, in series [2] (3 mg/kg), the “Cardiac frequency, max effect at 3 mg/kg” value is “+0.6 % vs basal”. Further, the “Systolic pressure, max effect at 3 mg/kg” value in series [2] (3 mg/kg) is reported as -15.5 % vs basal. In addition, the ED20 in series [2] is 13.1 mg/kg. In addition, the ED30 came out at 0.08 mg/kg in series [3] (setting [8]) and 0.1 mg/kg in series [3] (setting [9]).
As for `CCOc1ccccc1C1CCN(c2nc(N)c3cc(OC)c(OC)cc3n2)CC1` [Compound 3], the IC50 in series [1] (setting [10]) was 73.4 µM; in series [4] (setting [11]) it was 0.014 µM; in series [5] it was 0.0108 µM; in series [6] it was 0.0107 µM. In addition, the ED30 in series [3] (setting [8]) is 0.32 mg/kg; in series [3] (setting [9]) it was 0.35 mg/kg.
